In ChEMBL document CHEMBL1201862, “PubChem BioAssay data set” (2004):
The source made the active and inactive calls.

Key:
[1] = target: T1, Type-1 angiotensin II receptor (Homo sapiens, UniProt P30556); assay: AT1 receptor antagonists, dose response, selectivity assay for APJ receptor antagonist project, cell-based, uHTS hits (AID 463214); format: functional;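 further: antagonist potency against angiotensin II stimulated AT1 response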
T1 sequence (P30556 whole entry): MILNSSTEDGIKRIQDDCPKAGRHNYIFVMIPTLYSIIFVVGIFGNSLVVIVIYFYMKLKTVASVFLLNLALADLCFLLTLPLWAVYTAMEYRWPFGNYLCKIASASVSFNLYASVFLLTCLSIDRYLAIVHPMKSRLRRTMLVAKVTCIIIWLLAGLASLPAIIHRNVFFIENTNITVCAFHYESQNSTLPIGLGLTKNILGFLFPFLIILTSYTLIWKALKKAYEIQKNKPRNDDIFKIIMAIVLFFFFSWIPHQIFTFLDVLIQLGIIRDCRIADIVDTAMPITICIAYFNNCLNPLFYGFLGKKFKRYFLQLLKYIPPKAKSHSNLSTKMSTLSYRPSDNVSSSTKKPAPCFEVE

[2] = target: Beta-galactosidase (Escherichia coli, UniProt Q8VNN2); assay: PubChem AID 485352; format: functional
[3] = target: T2, Protein skinhead-1 (Caenorhabditis elegans, UniProt P34707); format: functional
T2 sequence (P34707 whole entry): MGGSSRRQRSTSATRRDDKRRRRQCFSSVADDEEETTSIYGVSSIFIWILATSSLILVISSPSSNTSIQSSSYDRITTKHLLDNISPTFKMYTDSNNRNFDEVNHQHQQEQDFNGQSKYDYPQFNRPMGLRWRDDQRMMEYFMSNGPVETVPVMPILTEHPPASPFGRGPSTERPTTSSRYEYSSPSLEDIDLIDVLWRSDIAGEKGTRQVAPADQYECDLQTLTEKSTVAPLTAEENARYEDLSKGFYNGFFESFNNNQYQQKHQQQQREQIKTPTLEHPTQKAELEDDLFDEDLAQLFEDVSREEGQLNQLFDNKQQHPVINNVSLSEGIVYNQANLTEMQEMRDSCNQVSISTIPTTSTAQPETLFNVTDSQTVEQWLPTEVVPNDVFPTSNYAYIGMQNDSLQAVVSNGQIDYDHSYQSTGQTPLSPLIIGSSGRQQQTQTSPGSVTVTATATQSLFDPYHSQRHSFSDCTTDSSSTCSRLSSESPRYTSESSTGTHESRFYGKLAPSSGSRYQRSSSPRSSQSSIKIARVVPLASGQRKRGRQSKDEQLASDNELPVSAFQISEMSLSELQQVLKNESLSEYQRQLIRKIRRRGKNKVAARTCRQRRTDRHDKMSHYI

[4] = target: T3, Leucine aminopeptidase (Plasmodium falciparum 3D7, UniProt Q8IL11); assay: P. falciparum M17LAP inhibitors, primary screen, biochemical, fluorogenic H-Leu-NHMec substrate, 1536-well (AID 1619); format: functional
T3 sequence (Q8IL11 whole entry): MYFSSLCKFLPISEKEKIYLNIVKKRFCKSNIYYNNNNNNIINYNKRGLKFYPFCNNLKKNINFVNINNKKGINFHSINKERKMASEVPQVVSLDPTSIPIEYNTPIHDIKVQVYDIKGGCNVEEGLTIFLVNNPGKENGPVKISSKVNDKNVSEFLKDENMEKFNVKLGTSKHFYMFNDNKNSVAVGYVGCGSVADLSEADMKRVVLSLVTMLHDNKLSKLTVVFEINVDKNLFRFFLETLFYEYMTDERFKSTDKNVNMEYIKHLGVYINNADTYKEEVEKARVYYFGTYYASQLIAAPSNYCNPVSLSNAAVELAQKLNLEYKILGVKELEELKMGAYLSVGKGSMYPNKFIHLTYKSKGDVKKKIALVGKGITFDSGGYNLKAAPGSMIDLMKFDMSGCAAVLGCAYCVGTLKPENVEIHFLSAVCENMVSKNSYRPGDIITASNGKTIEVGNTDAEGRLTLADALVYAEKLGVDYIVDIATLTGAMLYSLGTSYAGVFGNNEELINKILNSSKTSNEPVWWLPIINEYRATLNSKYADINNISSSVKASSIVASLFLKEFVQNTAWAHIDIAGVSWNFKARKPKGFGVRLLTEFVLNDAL

[5] = target: T4, Ubiquitin-conjugating enzyme E2 N (Homo sapiens, UniProt P61088); format: functional;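 further: Dose-response confirmation in a TR-FRET assay detecting UBC13-driven polyubiquitin chain formation, inhibition measured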
T4 sequence (P61088 whole entry): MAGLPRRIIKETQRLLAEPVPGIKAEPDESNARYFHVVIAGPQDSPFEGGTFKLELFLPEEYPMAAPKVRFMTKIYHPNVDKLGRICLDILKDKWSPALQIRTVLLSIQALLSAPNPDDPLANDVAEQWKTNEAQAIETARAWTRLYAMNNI

[6] = target: T5, Coagulation factor XII (Homo sapiens, UniProt P00748); format: functional;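 further: activated factor XIIa alpha cleaving a fluorogenic AMC peptide substrate; inhibitor potency from loss of enzyme activity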
T5 sequence (P00748 whole entry): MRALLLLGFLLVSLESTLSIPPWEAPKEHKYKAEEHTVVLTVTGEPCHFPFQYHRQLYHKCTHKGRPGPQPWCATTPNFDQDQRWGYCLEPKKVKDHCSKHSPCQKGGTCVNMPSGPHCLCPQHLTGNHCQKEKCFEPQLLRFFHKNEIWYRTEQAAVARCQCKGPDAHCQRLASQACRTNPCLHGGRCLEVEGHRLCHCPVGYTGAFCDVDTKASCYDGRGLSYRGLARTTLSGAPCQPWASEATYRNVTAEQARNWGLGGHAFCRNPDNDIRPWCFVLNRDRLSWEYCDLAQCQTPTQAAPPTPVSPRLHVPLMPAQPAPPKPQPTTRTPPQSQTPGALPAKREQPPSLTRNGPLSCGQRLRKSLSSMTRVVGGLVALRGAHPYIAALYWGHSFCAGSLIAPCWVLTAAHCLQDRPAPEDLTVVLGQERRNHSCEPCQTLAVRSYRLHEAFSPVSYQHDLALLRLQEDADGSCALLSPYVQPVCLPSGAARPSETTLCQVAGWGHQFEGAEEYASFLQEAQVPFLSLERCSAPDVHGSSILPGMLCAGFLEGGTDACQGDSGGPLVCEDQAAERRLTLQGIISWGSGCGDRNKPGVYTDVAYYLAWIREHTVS

[7] = target: Nonstructural protein 1 (Influenza A virus, UniProt Q194T2); format: functional, Influenza A virus (A/California/07/2009(H1N1))
[8] = target: T6, Fatty acid synthase (Homo sapiens, UniProt P49327); assay: FAS thioesterase domain inhibitors, dose response, biochemical, kinetic fluorescence intensity (AID 624326); format: functional;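 further: rate of fluorescence rise from hydrolysis of a fluorogenic O-methyl fluorescein ester substrate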
[9] = target: T7, Heat shock factor protein 1 (Mus musculus, UniProt P38532); assay: inhibition of MG132-induced HSE-luciferase signal, confirmation, cell-based, NIH3T3, luminescence, dose retest (AID 2382); format: functional;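 further: NIH3T3 fibroblasts with HSF1-driven luciferase reporter stressed by proteasome inhibitor MG132; luminescence from HSF1-driven luciferase expression after 8 hours of MG132 stress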
T7 sequence (P38532 whole entry): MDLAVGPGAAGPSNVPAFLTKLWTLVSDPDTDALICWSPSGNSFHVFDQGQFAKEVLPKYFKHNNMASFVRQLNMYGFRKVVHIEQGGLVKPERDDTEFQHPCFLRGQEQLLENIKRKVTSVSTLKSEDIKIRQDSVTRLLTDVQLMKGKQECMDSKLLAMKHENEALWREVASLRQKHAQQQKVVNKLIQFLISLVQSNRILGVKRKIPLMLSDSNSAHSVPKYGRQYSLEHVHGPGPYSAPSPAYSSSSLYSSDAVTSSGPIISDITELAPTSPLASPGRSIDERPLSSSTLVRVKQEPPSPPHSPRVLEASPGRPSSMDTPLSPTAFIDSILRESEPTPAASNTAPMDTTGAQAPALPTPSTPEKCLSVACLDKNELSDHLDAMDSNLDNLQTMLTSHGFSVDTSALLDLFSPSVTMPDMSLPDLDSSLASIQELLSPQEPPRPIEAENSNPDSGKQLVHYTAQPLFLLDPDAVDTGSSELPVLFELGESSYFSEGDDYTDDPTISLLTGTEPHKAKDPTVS

[10] = target: T6, Fatty acid synthase; assay: FAS thioesterase domain inhibitors, dose response, biochemical, endpoint fluorescence intensity, uHTS hits (AID 624327); format: functional;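 further: fluorescence from hydrolysis of an O-methyl fluorescein acyl ester substrate by the enzyme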
[11] = test system: Streptococcus; assay: Group A Streptococcus viability loss, dose response, counter-screen for streptokinase expression inhibitor project, luminescence, BacTiterGlo (AID 1915); format: functional, organism-based;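 further: potency for reduction of bacterial viability or growth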
[12] = test system: Streptococcus sp. 'group A'; assay: growth inhibition of control SK(-) GAS strain, dose response, counter-screen for streptokinase expression inhibitor project, luminescence, kanamycin, BacTiterGlo, confirmation (AID 1900); format: functional, organism-based

Beta-galactosidase, sequence (Q8VNN2 whole entry): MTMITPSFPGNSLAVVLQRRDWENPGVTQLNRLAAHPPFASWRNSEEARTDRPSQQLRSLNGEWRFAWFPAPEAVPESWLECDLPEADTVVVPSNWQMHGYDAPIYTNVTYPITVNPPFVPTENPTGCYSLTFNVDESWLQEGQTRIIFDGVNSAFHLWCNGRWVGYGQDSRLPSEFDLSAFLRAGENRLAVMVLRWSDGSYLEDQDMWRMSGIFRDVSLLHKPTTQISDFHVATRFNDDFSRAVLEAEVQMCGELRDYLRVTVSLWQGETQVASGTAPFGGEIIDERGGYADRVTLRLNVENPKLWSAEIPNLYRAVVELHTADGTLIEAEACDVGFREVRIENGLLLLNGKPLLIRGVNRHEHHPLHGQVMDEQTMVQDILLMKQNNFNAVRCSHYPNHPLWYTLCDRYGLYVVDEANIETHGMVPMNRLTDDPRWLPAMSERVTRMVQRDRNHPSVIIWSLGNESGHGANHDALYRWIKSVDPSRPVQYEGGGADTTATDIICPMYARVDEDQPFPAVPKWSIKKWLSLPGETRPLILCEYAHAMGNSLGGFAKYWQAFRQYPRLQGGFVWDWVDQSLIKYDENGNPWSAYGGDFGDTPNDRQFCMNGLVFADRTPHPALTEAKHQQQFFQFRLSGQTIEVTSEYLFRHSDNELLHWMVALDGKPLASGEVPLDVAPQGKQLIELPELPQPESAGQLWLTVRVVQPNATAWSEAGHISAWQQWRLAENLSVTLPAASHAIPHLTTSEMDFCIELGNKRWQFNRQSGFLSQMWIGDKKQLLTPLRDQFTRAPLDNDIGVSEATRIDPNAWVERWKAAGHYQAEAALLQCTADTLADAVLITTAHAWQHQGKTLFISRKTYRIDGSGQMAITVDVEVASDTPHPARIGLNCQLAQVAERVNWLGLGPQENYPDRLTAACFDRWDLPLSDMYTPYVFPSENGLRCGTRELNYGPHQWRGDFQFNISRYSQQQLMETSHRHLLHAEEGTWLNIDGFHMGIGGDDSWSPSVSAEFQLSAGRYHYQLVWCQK
T6 sequence (P49327 whole entry, the tested form may be a part): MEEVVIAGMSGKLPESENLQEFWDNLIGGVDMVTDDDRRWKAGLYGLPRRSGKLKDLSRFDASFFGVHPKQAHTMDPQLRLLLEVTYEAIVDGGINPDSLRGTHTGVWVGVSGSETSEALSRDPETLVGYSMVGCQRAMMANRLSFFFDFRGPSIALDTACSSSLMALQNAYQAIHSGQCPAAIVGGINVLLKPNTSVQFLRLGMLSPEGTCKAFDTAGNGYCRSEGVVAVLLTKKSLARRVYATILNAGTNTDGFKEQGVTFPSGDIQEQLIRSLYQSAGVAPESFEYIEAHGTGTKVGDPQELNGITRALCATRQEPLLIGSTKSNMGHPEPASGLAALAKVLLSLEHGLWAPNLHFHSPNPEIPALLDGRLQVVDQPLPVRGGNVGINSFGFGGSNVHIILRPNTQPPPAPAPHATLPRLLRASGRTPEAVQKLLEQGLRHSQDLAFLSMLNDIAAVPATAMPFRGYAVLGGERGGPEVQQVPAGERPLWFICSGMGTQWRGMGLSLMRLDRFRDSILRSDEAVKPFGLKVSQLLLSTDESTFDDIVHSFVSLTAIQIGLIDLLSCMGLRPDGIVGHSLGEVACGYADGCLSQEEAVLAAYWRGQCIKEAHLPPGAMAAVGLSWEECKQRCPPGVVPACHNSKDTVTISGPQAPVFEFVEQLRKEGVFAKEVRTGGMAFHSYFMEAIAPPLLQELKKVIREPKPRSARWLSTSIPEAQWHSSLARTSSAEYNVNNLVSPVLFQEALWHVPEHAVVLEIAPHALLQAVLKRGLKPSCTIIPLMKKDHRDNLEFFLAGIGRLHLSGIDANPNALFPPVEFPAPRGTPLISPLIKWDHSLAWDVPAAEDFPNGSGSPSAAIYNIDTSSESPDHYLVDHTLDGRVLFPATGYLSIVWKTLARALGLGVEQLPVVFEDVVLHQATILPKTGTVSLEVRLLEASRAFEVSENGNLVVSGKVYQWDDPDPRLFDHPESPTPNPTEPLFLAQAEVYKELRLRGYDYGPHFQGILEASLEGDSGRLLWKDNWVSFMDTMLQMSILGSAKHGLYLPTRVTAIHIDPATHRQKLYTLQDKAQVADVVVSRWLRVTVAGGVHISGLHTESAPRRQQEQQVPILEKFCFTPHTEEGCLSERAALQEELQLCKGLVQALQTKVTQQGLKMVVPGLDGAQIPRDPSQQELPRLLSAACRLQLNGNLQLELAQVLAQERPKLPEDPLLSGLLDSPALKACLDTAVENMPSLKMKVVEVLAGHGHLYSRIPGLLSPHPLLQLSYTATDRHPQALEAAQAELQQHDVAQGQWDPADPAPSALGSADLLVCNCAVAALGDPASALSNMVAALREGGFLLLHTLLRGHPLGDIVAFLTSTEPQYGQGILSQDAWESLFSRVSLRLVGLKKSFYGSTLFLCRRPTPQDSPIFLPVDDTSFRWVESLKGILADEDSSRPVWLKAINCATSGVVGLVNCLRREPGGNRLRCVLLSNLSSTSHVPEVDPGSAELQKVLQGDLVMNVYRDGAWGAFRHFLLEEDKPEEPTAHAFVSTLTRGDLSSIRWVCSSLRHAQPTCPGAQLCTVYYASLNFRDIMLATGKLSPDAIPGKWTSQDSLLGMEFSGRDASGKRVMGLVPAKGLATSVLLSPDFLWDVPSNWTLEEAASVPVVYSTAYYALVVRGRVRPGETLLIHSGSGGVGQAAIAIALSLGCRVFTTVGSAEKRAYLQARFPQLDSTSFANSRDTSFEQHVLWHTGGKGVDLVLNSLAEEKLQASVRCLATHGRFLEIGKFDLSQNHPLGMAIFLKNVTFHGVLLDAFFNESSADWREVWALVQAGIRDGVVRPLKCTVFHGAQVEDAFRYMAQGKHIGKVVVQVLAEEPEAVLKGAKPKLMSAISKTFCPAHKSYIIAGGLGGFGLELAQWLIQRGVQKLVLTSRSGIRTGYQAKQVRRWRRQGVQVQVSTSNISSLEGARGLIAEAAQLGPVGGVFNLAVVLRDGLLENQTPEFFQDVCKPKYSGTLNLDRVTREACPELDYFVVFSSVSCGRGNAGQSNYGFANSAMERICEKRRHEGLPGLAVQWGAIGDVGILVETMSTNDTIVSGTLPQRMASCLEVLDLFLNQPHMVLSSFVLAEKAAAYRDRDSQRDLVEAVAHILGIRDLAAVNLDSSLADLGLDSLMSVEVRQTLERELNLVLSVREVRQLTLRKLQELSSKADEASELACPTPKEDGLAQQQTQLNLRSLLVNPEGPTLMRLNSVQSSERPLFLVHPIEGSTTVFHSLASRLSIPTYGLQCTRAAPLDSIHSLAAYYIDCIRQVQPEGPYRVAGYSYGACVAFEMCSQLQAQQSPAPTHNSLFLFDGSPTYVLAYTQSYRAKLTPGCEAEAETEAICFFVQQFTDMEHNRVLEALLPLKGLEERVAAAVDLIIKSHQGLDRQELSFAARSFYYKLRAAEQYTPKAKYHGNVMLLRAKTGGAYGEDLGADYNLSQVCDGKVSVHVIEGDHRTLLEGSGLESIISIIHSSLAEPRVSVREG
Nonstructural protein 1, sequence (Q194T2 whole entry, the tested form may be a part): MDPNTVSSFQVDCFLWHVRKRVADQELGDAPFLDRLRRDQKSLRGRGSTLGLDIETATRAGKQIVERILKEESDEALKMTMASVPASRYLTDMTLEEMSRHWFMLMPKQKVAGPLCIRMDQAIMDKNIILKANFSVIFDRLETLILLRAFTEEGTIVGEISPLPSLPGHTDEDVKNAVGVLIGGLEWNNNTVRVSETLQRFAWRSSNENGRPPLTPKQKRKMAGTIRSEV

CCOC(=O)C1=NNC(C(=O)c2ccc(Cl)cc2)C1c1ccccc1 (stereo not given)
IC50 [1]: 39.9 µM (not active)
EC50 [2]: > 40 µM (inactive)

O=C(CCN1C(=O)C2C3CC(C(Br)C3Br)C2C1=O)OCC(=O)c1cccc([N+](=O)[O-])c1 (stereo not given)
IC50 [1]: 28.4 µM (not active)
EC50 [2]: > 40 µM (inactive)

COc1ccccc1NC(=O)c1ccc(CN2CCOCC2)cc1
IC50 [3]: > 100 µM (inactive)

CCN(CC)CC(=O)c1ccc(-c2ccccc2)cc1
IC50 [1]: 18.8 µM (active)
IC50 [4]: 60.2 µM (active)
EC50 [2]: > 40 µM (inactive)

O=S(=O)(c1ccc(N2CCCC2)cc1)C(F)(F)F
IC50 [3]: > 100 µM (inactive)

COc1ccc2sc(-c3ccccc3OC)c(C#Cc3cncn3C)c2c1
IC50 [5]: > 20 µM (inactive)

COc1cccc(/C=N/n2c(N)c(S(=O)(=O)c3cccs3)c3nc4ccccc4nc32)c1OC
IC50 [6]: > 50 µM (inactive)

Cc1ncc(CO)c(/C=N/NC(=S)Nc2ccc(F)cc2)c1O
IC50 [7]: 2.84 µM (active)

COc1ccc(O)c(/C=N/NC(=O)c2cc(O)nc3ccccc23)c1
IC50 [6]: > 50 µM (inactive)

O=C(Cn1nc2ccccc2n1)N/N=C/c1cc([N+](=O)[O-])ccc1O
IC50 [8]: 5.14 µM (active)
EC50 [9]: 0.691 µM (active)
IC50 [7]: 5.08 µM (active)
IC50 [10]: 3.76 µM (active)
EC50 [11]: 0.55 µM (active)
EC50 [12]: 0.419 µM (active)

CC1CCN(CCNC(=O)c2ccc3c(=O)n(Cc4ccc(Cl)cc4)c(=S)[nH]c3c2)CC1
IC50 [5]: > 20 µM (inactive)
